pEC50: −log10 of the molar value.
Assays:
[1] = molecular target: recombinant GSK3β kinase (Homo sapiens (Human), UniProt P49841); experiment: GSK3β kinase assay (Ser/Thr 09 peptide Z-lyte FRET); type: biochemical; conditions: 46 μM ATP, 1 h room temperature;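 note: kinase activity read as coumarin to fluorescein emission ratio, 11-point threefold dilutions from 10 µM to 0.0003 µM in duplicate, unphosphorylated and phosphorylated peptide as 0% and 100% controls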
[2] = system: α-smooth muscle actin (αSMA) positive LL29 cells; experiment: Inhibition of fibrotic process: αSMA in TGF-β1 treated primary human fibroblasts from IPF patients; type: cell-based; conditions: Homo sapiens, Fibroblast; for pEC50: 96 h, Table 8, LL29 fibroblasts from IPF patients, TGF-β1 20 ng/mL, 4 days, dose-response 10 μM to 0.94 nM; for inhibition at 10 µM: read-out: percent value in parentheses beside EC50 >10 μM;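 for all read-outs here: controls were TGF-β1 stimulated wells with DMSO vehicle (positive) and cells given DMSO alone (negative), cultured in F12 medium with 1% fetal bovine serum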
[3] = system: IL-6; experiment: IL-6 inhibition in LPS-stimulated human peripheral blood mononuclear cells (HTRF); type: cell-based; conditions: Homo sapiens, PBMC; for pEC50: Table 9, huPBMCs, LPS 50 ng/mL, 22 hours, dose-response starting from 10 μM; for inhibition at 10 µM: read-out: percent value in parentheses beside EC50 >10 μM;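 for all read-outs here: IL-6 detected by HTRF with an XL665- and Cryptate-labelled anti-IL-6 antibody pair, samples run in duplicate, EC50 obtained from a four-parameter Levenberg-Marquardt curve fit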
Experimental: After 22 hour incubation, a mixture of anti-IL6 XL665 and anti-IL-6 Cryptate diluted in reconstitution buffer (Catalog #62IL6PEC, Cisbio Inc., Bedford, Mass.) was added to each well. […] All samples were processed in duplicate. […] EC50 was determined using software generated by Dotmatics Limited (Windhill Bishops Stortford Herts, UK) using the Levenberg-Marquardt 4 parameter fitting procedure with finite different gradients.

[4] = system: Wnt pathway (Sp5-Luc reporter, TCF/LEF binding sites) in SW480 colon carcinoma cells; experiment: Screening assay for Wnt activity: Sp5-Luc reporter gene assay; type: cell-based, human; conditions: Homo sapiens; for pEC50: Sp5-Luc reporter, SW480 cells, 36 to 48 hours;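 for all read-outs here: firefly luciferase luminescence read in stably transduced SW480 cells carrying the Sp5 promoter reporter with eight TCF/LEF sites, compounds given in 0.1% DMSO final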
Experimental: The screening assay for Wnt activity is described as follows.
Following incubation, 15 μl of BriteLite Plus luminescence reagent (Perkin Elmer) was added to each well of the 384-well assay plates. The plates were placed on an orbital shaker for 2 min and then luminescence was quantified using the Envision (Perkin Elmer) plate reader.

[5] = system: Tau phosphorylation at Ser396 (pSer396); experiment: Tau phosphorylation assay (pSer396 ELISA / western blot) in SH-SY5Y cells; type: cell-based, human; conditions: Homo sapiens; SH-SY5Y cells, overnight (16-18 h) exposure; read-out: pSer396 Tau EC50;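 note: EC50 for reduction of Tau pSer396 in lysed cells, measured by colorimetric ELISA or chemiluminescent western blot, both using the same pSer396 antibody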
[6] = molecular target: recombinant DYRK1A kinase (Homo sapiens (Human), UniProt Q13627); experiment: DYRK1A kinase assay (Ser/Thr 18 peptide Z-lyte FRET); type: biochemical; conditions: 30 μM ATP, 1 h room temperature;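 note: Read-out is the coumarin to fluorescein emission ratio, referenced to unphosphorylated (0%) and phosphorylated (100%) Ser/Thr 18 peptide controls, values from dose-response curves by non-linear regression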
[7] = system: SW480 colon carcinoma cells; experiment: Cell viability assay (CellTiter-Glo); type: cell-based, human; conditions: Homo sapiens, 96 h; SW480 cells, CellTiter-Glo, four days incubation

Sequence of recombinant GSK3β kinase (P49841 whole entry): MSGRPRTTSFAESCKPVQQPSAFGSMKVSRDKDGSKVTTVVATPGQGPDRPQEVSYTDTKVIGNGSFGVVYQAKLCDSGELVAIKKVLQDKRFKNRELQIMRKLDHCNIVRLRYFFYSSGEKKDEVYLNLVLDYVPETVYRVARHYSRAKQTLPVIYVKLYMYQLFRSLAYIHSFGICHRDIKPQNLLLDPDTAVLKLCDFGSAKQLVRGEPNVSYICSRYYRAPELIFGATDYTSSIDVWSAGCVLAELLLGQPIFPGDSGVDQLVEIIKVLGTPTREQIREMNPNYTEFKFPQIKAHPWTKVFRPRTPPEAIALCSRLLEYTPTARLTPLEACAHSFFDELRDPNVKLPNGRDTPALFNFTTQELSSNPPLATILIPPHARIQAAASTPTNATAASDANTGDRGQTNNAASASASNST

| Structure (SMILES) | pEC50 [1] | pEC50 [2] | pEC50 [3] | pEC50 [4] | pEC50 [5] | pEC50 [6] | pEC50 [7] | inhibition at 10 µM [2] [%] | inhibition at 10 µM [3] [%] | inhibition at 10 µM ([4]; SW480, read-out: percent inhibition at 10 μM) [%] |
| --- | --- | --- | --- | --- | --- | --- | --- | --- | --- | --- |
| Cn1cc(-c2ccc3cnc(NC(=O)CC4CNCCO4)cc3c2)cn1 (stereo not drawn) [Compound 349, N-(6-(1-Methyl-1H-pyrazol-4-yl)isoquinolin-3-yl)-2-(morpholin-2-yl) acetamide] | 7.18 | 6.84 | 6.51 | 6.15 | 6.45 | 8.19 | 6.15 |  |  |  |
| CN1CCOC(CC(=O)Nc2cc3cc(-c4cnn(C)c4)ccc3cn2)C1 (stereo not drawn) [Compound 350, N-(6-(1-Methyl-1H-pyrazol-4-yl)isoquinolin-3-yl)-2-(4-methylmorpholin-2-yl)acetamide] | 7.48 | 7.00 | 6.24 | 6.00 | 6.38 | 8.21 | 5.97 |  |  |  |
| CCN1CCN(CC(=O)Nc2cc3cc(-c4cnn(C)c4)ccc3cn2)CC1 [Compound 351, 2-(4-Ethylpiperazin-1-yl)-N-(6-(1-methyl-1H-pyrazol-4-yl)isoquinolin-3-yl) acetamide] | 6.89 | < 5.00 | 5.52 | 5.60 | 6.07 | 7.87 | 5.16 | 38.8 |  |  |
| CC(C)N1CCN(CC(=O)Nc2cc3cc(-c4cnn(C)c4)ccc3cn2)CC1 [Compound 352, 2-(4-Isopropylpiperazin-1-yl)-N-(6-(1-methyl-1H-pyrazol-4-yl)isoquinolin-3-yl)acetamide] | 6.96 | 5.88 | 5.30 | 5.53 | 5.89 | 7.67 | 5.07 |  |  |  |
| Cn1cc(-c2ccc3cnc(NC(=O)CN4CCN(C5CC5)CC4)cc3c2)cn1 [Compound 353, 2-(4-Cyclopropylpiperazin-1-yl)-N-(6-(1-methyl-1H-pyrazol-4-yl)isoquinolin-3-yl)acetamide] | 7.54 | < 5.00 | < 5.00 | 5.24 | 6.14 | 8.07 | 5.08 | 31.7 | 39.9 |  |
| Cn1cc(-c2ccc3cnc(NC(=O)CN4CCN(CCF)CC4)cc3c2)cn1 [Compound 354, 2-(4-(2-Fluoroethyl)piperazin-1-yl)-N-(6-(1-methyl-1H-pyrazol-4-yl)isoquinolin-3-yl)acetamide] | 7.43 | 6.46 | 5.15 | 5.63 | 5.92 | 8.36 | 5.30 |  |  |  |
| C[C@H]1CN(C)CCN1CC(=O)Nc1cc2cc(-c3cnn(C)c3)ccc2cn1 [Compound 355, (S)-2-(2,4-Dimethylpiperazin-1-yl)-N-(6-(1-methyl-1H-pyrazol-4-yl)isoquinolin-3-yl)acetamide] | 6.64 | 5.21 | 5.04 | 5.45 | 5.77 | 8.19 | 5.06 |  |  |  |
| Cn1cc(-c2ccc3cnc(NC(=O)C4CCN(CCO)CC4)cc3c2)cn1 [Compound 358, 1-(2-Hydroxyethyl)-N-(6-(1-methyl-1H-pyrazol-4-yl)isoquinolin-3-yl) piperidine-4-carboxamide] | 7.10 | 6.84 | 6.21 | 6.38 | 6.45 | 9.22 | 5.62 |  |  |  |
| Cn1cc(-c2ccc3cnc(NC(=O)C4CCN(Cc5ccccn5)CC4)cc3c2)cn1 [Compound 359, N-(6-(1-Methyl-1H-pyrazol-4-yl)isoquinolin-3-yl)-1-(pyridin-2-ylmethyl) piperidine-4-carboxamide] | 7.09 | 6.90 | 5.99 | 6.17 | 6.28 | 8.52 | 6.58 |  |  |  |
| Cn1cc(-c2ccc3cnc(NC(=O)C4CCN(Cc5ncco5)CC4)cc3c2)cn1 [Compound 360, N-(6-(1-Methyl-1H-pyrazol-4-yl)isoquinolin-3-yl)-1-(oxazol-2-ylmethyl) piperidine-4-carboxamide] | 7.33 | 7.03 | 5.93 | 6.16 | 6.18 | 8.72 | 6.24 |  |  |  |
| CN1CCC[C@@H]1C(=O)Nc1cc2cc(-c3cnn(C)c3)ccc2cn1 [Compound 363, (R)-1-Methyl-N-(6-(1-methyl-1H-pyrazol-4-yl)isoquinolin-3-yl)pyrrolidine-2-carboxamide] | 7.46 | 6.41 | 5.91 | 5.63 | 6.39 | 7.30 | 5.51 |  |  |  |
| Cn1cc(-c2ccc3cnc(NC(=O)C4CC4)c(Cl)c3c2)cn1 [Compound 364, N-(4-Chloro-6-(1-methyl-1H-pyrazol-4-yl)isoquinolin-3-yl) cyclopropanecarboxamide] | 5.51 | < 5.00 | < 5.00 | < 5.00 | < 5.00 | 6.08 | 5.25 | 15 | 5.8 | 24.1 |
| Cn1cc(-c2ccc3cnc(NC(=O)[C@H]4CC[C@H](N)CC4)cc3c2)cn1 [Compound 365, trans-4-Amino-N-(6-(1-methyl-1H-pyrazol-4-yl)isoquinolin-3-yl) cyclohexane-1-carboxamide] | 7.28 | 5.32 | 6.28 | 6.42 | 5.92 | 8.57 | 6.28 |  |  |  |
| Cn1cc(-c2cc(F)c3cnc(NC(=O)C4CCNCC4)cc3c2)cn1 [Compound 366, N-(8-Fluoro-6-(1-methyl-1H-pyrazol-4-yl)isoquinolin-3-yl)piperidine-4-carboxamide] | 6.94 | 6.76 | 5.95 | 6.48 | 5.96 | 7.97 | 6.04 |  |  |  |
| CC(C)CN1CCC(C(=O)Nc2cc3cc(-c4cnn(C)c4)cc(F)c3cn2)CC1 [Compound 367, N-(8-Fluoro-6-(1-methyl-1H-pyrazol-4-yl)isoquinolin-3-yl)-1-isobutylpiperidine-4-carboxamide] | 7.25 | 6.68 | 5.94 | 6.28 | 6.59 | 7.95 | 5.08 |  |  |  |
| Cn1cc(-c2cc(F)c3cnc(NC(=O)C4CCN(CCF)CC4)cc3c2)cn1 [Compound 368, N-(8-Fluoro-6-(1-methyl-1H-pyrazol-4-yl)isoquinolin-3-yl)-1-(2-fluoroethyl) piperidine-4-carboxamide] | 7.29 | 6.57 | 5.93 | 6.16 | 6.18 | 8.10 | 6.19 |  |  |  |
| Cn1cc(-c2cc3cc(NC(=O)C4CCNCC4)ncc3cc2F)cn1 [Compound 369, N-(7-Fluoro-6-(1-methyl-1H-pyrazol-4-yl)isoquinolin-3-yl)piperidine-4-carboxamide] | 7.00 | 6.53 | 5.95 | 6.13 | 6.01 | 8.55 | 6.06 |  |  |  |
| CC(C)CN1CCC(C(=O)Nc2cc3cc(-c4cnn(C)c4)c(F)cc3cn2)CC1 [Compound 370, N-(7-Fluoro-6-(1-methyl-1H-pyrazol-4-yl)isoquinolin-3-yl)-1-isobutylpiperidine-4-carboxamide] | 7.05 | 6.42 | 5.43 | 6.22 | 6.59 | 8.51 | 5.90 |  |  |  |
| Cn1cc(-c2cc3cc(NC(=O)C4CCN(CCF)CC4)ncc3cc2F)cn1 [Compound 371, N-(7-Fluoro-6-(1-methyl-1H-pyrazol-4-yl)isoquinolin-3-yl)-1-(2-fluoroethyl) piperidine-4-carboxamide] | 7.64 | 6.40 | 5.92 | 6.19 | 6.24 | 8.62 | 5.97 |  |  |  |
| CN1CCN(CC(=O)Nc2cc3cc(-c4cnn(C)c4)c(F)cc3cn2)CC1 [Compound 372, N-(7-Fluoro-6-(1-methyl-1H-pyrazol-4-yl)isoquinolin-3-yl)-2-(4-methylpiperazin-1-yl)acetamide] | 7.10 | 6.30 | 5.44 | 5.47 | 5.96 | 7.97 | 5.05 |  |  |  |
| Cc1ncc(-c2ccc3cnc(NC(=O)C4(F)CC4)cc3c2)n1C [Compound 376, N-(6-(1,2-Dimethyl-1H-imidazol-5-yl)isoquinolin-3-yl)-1-fluorocyclopropane-1-carboxamide] | 6.15 | < 5.00 | < 5.00 | 5.66 | 5.10 | 8.26 | 5.38 | 21 | 11.8 |  |
| Cn1cc(-c2ccc3cnc(NC(=O)C4CC4)cc3c2)nn1 [Compound 433, N-(6-(1-Methyl-1H-1,2,3-triazol-4-yl)isoquinolin-3-yl) cyclopropanecarboxamide] | 9.00 | 7.28 | 6.39 | 6.72 | 7.49 | 8.72 | 6.21 |  |  |  |
